Experimental data taken from PubChem BioAssay AID2060484 (Molecular Pharmacology Branch, DTP, NCI, 2025).

System: SUM149PT spheroids with HUVEC/MSC, viability
Experiment: Anticancer human tumor SUM149PT cell line growth inhibition [GQUAD];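 also: spheroids exposed to drugs for seven days before readout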;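 as to viability, T/C: percent viability relative to DMSO vehicle control taken as 100%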
Conditions: for IC50: curve of first compound; for viability, T/C: stronger effect = lower value
Procedure, shortened: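 Tumor cells were grown as complex spheroids with HUVEC endothelial cells and mesenchymal stem cells as stroma. G-quadruplex stabilizers were combined with targeted agents over half-log dilutions from near the clinical Cmax, or from 10 microM.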

[1] = second compound 0.0316 µM, first compound 0.0316 µM
[2] = second compound 0.0316 µM, first compound 0.1 µM
[3] = second compound 0.0316 µM, first compound 0.316 µM
[4] = second compound 0.0316 µM, first compound 1 µM
[5] = second compound 0.0316 µM, first compound 3.16 µM
[6] = second compound 0.0316 µM, first compound 10 µM
[7] = second compound 0.1 µM, first compound 0.0316 µM
[8] = second compound 0.1 µM, first compound 0.1 µM
[9] = second compound 0.1 µM, first compound 0.316 µM
[10] = second compound 0.1 µM, first compound 1 µM
[11] = second compound 0.1 µM, first compound 3.16 µM
[12] = second compound 0.1 µM, first compound 10 µM
[13] = second compound 0.316 µM, first compound 0.0316 µM
[14] = second compound 0.316 µM, first compound 0.1 µM
[15] = second compound 0.316 µM, first compound 0.316 µM
[16] = second compound 0.316 µM, first compound 1 µM
[17] = second compound 0.316 µM, first compound 3.16 µM
[18] = second compound 0.316 µM, first compound 10 µM
[19] = second compound 1 µM, first compound 0.0316 µM
[20] = second compound 1 µM, first compound 0.1 µM
[21] = second compound 1 µM, first compound 0.316 µM
[22] = second compound 1 µM, first compound 1 µM
[23] = second compound 1 µM, first compound 3.16 µM
[24] = second compound 1 µM, first compound 10 µM
[25] = second compound 3.16 µM, first compound 0.0316 µM
[26] = second compound 3.16 µM, first compound 0.1 µM
[27] = second compound 3.16 µM, first compound 0.316 µM
[28] = second compound 3.16 µM, first compound 1 µM
[29] = second compound 3.16 µM, first compound 3.16 µM
[30] = second compound 3.16 µM, first compound 10 µM
[31] = second compound 10 µM, first compound 0.0316 µM
[32] = second compound 10 µM, first compound 0.1 µM
[33] = second compound 10 µM, first compound 0.316 µM
[34] = second compound 10 µM, first compound 1 µM
[35] = second compound 10 µM, first compound 3.16 µM
[36] = second compound 10 µM, first compound 10 µM

C#Cc1c(F)ccc2cc(O)cc(-c3ncc4c(N5CC6CCC(C5)N6)nc(OCC56CCCN5CC(F)C6)nc4c3F)c12 (stereo unspecified) + CN(C)c1ccc(Nc2c3ccc(NC(=O)CCN4CCCC4)cc3nc3cc(NC(=O)CCN4CCCC4)ccc23)cc1
IC50 (second compound 0.0316 µM): 5270 nM
IC50 (second compound 0.1 µM): 7470 nM
IC50 (second compound 0.316 µM): 2450 nM
IC50 (second compound 1 µM): 4570 nM
IC50 (second compound 3.16 µM): 1570 nM
IC50 (second compound 10 µM): 1710 nM
viability, T/C [1]: 100%
viability, T/C [2]: 93.3%
viability, T/C [3]: 73.5%
viability, T/C [4]: 73.8%
viability, T/C [5]: 57.2%
viability, T/C [6]: 40.8%
viability, T/C [7]: 107%
viability, T/C [8]: 102%
viability, T/C [9]: 88.1%
viability, T/C [10]: 66.3%
viability, T/C [11]: 58.1%
viability, T/C [12]: 46.6%
viability, T/C [13]: 93.6%
viability, T/C [14]: 83.9%
viability, T/C [15]: 68.7%
viability, T/C [16]: 57.1%
viability, T/C [17]: 49.6%
viability, T/C [18]: 38.6%
viability, T/C [19]: 75.5%
viability, T/C [20]: 82.8%
viability, T/C [21]: 77.2%
viability, T/C [22]: 61.3%
viability, T/C [23]: 61.1%
viability, T/C [24]: 34.1%
viability, T/C [25]: 88.2%
viability, T/C [26]: 81.6%
viability, T/C [27]: 73.3%
viability, T/C [28]: 51.3%
viability, T/C [29]: 45.2%
viability, T/C [30]: 31%
viability, T/C [31]: 80.7%
viability, T/C [32]: 86.6%
viability, T/C [33]: 62.8%
viability, T/C [34]: 56.3%
viability, T/C [35]: 45%
viability, T/C [36]: 19%

CC(=O)O[C@H]1C(=O)[C@@]2(C)[C@H]([C@H](OC(=O)c3ccccc3)[C@]3(O)C[C@H](OC(=O)[C@H](O)[C@@H](NC(=O)c4ccccc4)c4ccccc4)C(C)=C1C3(C)C)[C@]1(OC(C)=O)CO[C@@H]1C[C@@H]2O + CN(C)c1ccc(Nc2c3ccc(NC(=O)CCN4CCCC4)cc3nc3cc(NC(=O)CCN4CCCC4)ccc23)cc1
IC50 (second compound 0.0316 µM): < 31.6 nM
IC50 (second compound 0.1 µM): < 31.6 nM
IC50 (second compound 0.316 µM): < 31.6 nM
IC50 (second compound 1 µM): < 31.6 nM
IC50 (second compound 3.16 µM): < 31.6 nM
IC50 (second compound 10 µM): < 31.6 nM
viability, T/C [1]: 31.9%
viability, T/C [2]: 25.3%
viability, T/C [3]: 23.8%
viability, T/C [4]: 19.5%
viability, T/C [5]: 19.8%
viability, T/C [6]: 23.6%
viability, T/C [7]: 32.8%
viability, T/C [8]: 24.7%
viability, T/C [9]: 21.6%
viability, T/C [10]: 17.8%
viability, T/C [11]: 19.6%
viability, T/C [12]: 25.7%
viability, T/C [13]: 30.6%
viability, T/C [14]: 25.6%
viability, T/C [15]: 22.8%
viability, T/C [16]: 18.3%
viability, T/C [17]: 17.2%
viability, T/C [18]: 22.8%
viability, T/C [19]: 29.6%
viability, T/C [20]: 24.4%
viability, T/C [21]: 16.5%
viability, T/C [22]: 13.8%
viability, T/C [23]: 17%
viability, T/C [24]: 19.2%
viability, T/C [25]: 27.7%
viability, T/C [26]: 21.1%
viability, T/C [27]: 17.5%
viability, T/C [28]: 12.9%
viability, T/C [29]: 15.7%
viability, T/C [30]: 16.2%
viability, T/C [31]: 26.8%
viability, T/C [32]: 23.3%
viability, T/C [33]: 15.8%
viability, T/C [34]: 14.5%
viability, T/C [35]: 15.7%
viability, T/C [36]: 18.2%

Nc1ccn(C2OC(CO)C(O)C2(F)F)c(=O)n1 (stereo unspecified) + CN(C)c1ccc(Nc2c3ccc(NC(=O)CCN4CCCC4)cc3nc3cc(NC(=O)CCN4CCCC4)ccc23)cc1
IC50 (second compound 0.0316 µM): 110 nM
IC50 (second compound 0.1 µM): 173 nM
IC50 (second compound 0.316 µM): 128 nM
IC50 (second compound 1 µM): 96.5 nM
IC50 (second compound 3.16 µM): 62.8 nM
IC50 (second compound 10 µM): 42.1 nM
viability, T/C [1]: 87.9%
viability, T/C [2]: 51%
viability, T/C [3]: 34.6%
viability, T/C [4]: 27.2%
viability, T/C [5]: 25.9%
viability, T/C [6]: 20.8%
viability, T/C [7]: 80.2%
viability, T/C [8]: 59.7%
viability, T/C [9]: 39.6%
viability, T/C [10]: 26.7%
viability, T/C [11]: 23.7%
viability, T/C [12]: 20.8%
viability, T/C [13]: 68.1%
viability, T/C [14]: 55.3%
viability, T/C [15]: 34.7%
viability, T/C [16]: 26.6%
viability, T/C [17]: 25.6%
viability, T/C [18]: 15.8%
viability, T/C [19]: 65.8%
viability, T/C [20]: 51.2%
viability, T/C [21]: 32.7%
viability, T/C [22]: 27.9%
viability, T/C [23]: 21.4%
viability, T/C [24]: 16.5%
viability, T/C [25]: 65.4%
viability, T/C [26]: 39.8%
viability, T/C [27]: 24.3%
viability, T/C [28]: 21.6%
viability, T/C [29]: 17.8%
viability, T/C [30]: 14.8%
viability, T/C [31]: 55.1%
viability, T/C [32]: 35.7%
viability, T/C [33]: 25%
viability, T/C [34]: 20.9%
viability, T/C [35]: 18.8%
viability, T/C [36]: 13.4%
